The source of these data is US20240228489A1, “POSITIVE ALLOSTERIC MODULATORS OF THE MUSCARINIC ACETYLCHOLINE RECEPTOR M1” (Vanderbilt University, priority 2021, published 2024).

In experiment [1] the target is T1, human mAChR M1 (Homo sapiens, UniProt P11229).
T1 sequence (P11229 1-460): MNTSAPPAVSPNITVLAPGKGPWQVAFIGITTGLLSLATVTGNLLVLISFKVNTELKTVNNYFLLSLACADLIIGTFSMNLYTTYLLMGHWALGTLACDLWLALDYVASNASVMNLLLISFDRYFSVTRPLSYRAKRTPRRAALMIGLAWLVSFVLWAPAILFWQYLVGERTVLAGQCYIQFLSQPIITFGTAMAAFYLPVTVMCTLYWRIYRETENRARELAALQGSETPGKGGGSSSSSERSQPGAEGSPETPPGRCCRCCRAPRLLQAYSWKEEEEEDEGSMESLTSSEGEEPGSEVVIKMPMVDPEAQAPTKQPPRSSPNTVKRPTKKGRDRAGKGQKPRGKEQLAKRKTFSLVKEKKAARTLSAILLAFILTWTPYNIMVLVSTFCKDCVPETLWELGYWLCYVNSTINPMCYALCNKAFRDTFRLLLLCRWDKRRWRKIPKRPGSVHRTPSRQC
In words: mAChR M1 cell-based functional assay (calcium mobilization), PAM mode: increase in the EC20 acetylcholine response. The method, boiled down:
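CHO-K1 cells stably expressing hM1, Fluo-4 loaded, read by FDSS calcium flux at 1 Hz. Compound (11-point 1:3 CRC) added at 4 s, EC20 acetylcholine at 144 s, EC80 at 230 s. PAM activity taken as concentration-dependent increase in EC20 ACh response, fitted by four-parameter logistic for EC50/Emax.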

In experiment [2] the target is T1, human mAChR M1. In words: mAChR M1 cell-based functional assay (calcium mobilization), agonist mode: compound alone, Emax relative to acetylcholine maximum. The note with it: for Agonist Activity Human M1 EC50 / EC50: human mAChR M1; for Emax: relative to the maximum for acetylcholine. Summed up:
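CHO-K1 cells stably expressing hM1 were loaded with Fluo-4 AM, and calcium flux was read as fluorescence ratio. Compound was added alone from an 11-point 1:3 curve, and the agonist response was fitted with a four-parameter logistic. Emax is expressed relative to the acetylcholine maximum.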

Regarding `[2H]C1([2H])c2ncccc2C(=O)N1Cc1c(F)cc(-c2ccc(SC)c3nn(C)cc23)cc1F` [Compound 181, 6-(2,6-difluoro-4-(2-methyl-7-(methylthio)-2H-indazol-4-yl)benzyl)-6,7-dihydro-5H-pyrrolo[3,4-b]pyridin-5-one-7,7-d2], on human mAChR M1 [1], the EC50 is 475 nM and the Emax was found to be 82%. In addition, at human mAChR M1 [2], the “Agonist Activity Human M1 EC50” value was “Inactive” and the Emax was found to be 9%.
For the molecule `[2H]C1([2H])c2ncccc2C(=O)N1Cc1c(F)cc(-c2ccc(S(C)(=N)=O)c3nn(C)cc23)cc1F` (stereo not shown) [Compound 182, 6-(2,6-difluoro-4-(2-methyl-7-(S-methylsulfonimidoyl)-2H-indazol-4-yl)benzyl)-6,7-dihydro-5H-pyrrolo[3,4-b]pyridin-5-one-7,7-d2], on human mAChR M1 [1], the concentration for a half-maximal effect (EC50) stood at 594 nM and the maximum response (Emax) came out at 87%. For the same molecule, on human mAChR M1 [2], the “Agonist Activity Human M1 EC50” value is reported as “Inactive” and the maximal response (Emax) came out at 3%.
For the molecule `[2H]C1([2H])c2ncccc2C(=O)N1Cc1c(F)cc(-c2ccc(OC3CC3)c3nn(C([2H])([2H])[2H])cc23)cc1F` [Compound 183, 6-(4-(7-cyclopropoxy-2-(methyl-d3)-2H-indazol-4-yl)-2,6-difluorobenzyl)-6,7-dihydro-5H-pyrrolo[3,4-b]pyridin-5-one-7,7-d2], at human mAChR M1 [1], the EC50 was determined as 535 nM and the maximal effect (Emax) was found to be 86%. In addition, on human mAChR M1 [2], the EC50 is at least 10000 nM and the maximal effect (Emax) was found to be 13%.
As to `[2H]C1([2H])c2ncccc2C(=O)N1Cc1c(F)cc(-c2ccc(OC3CN(CCCC)C3)c3nn(C)cc23)cc1F` [Compound 184, 6-(4-(7-((1-butylazetidin-3-yl)oxy)-2-methyl-2H-indazol-4-yl)-2,6-difluorobenzyl)-6,7-dihydro-5H-pyrrolo[3,4-b]pyridin-5-one-7,7-d2], at human mAChR M1 [1], the EC50 came out at 512 nM and the Emax stood at 87%. At human mAChR M1 [2], the “Agonist Activity Human M1 EC50” value is on record as “Inactive” and the maximal response (Emax) worked out at 5%.
With `[2H]C1([2H])c2ncccc2C(=O)N1Cc1c(F)cc(-c2ccc(OCSC)c3nn(C)cc23)cc1F` [Compound 185, 6-(2,6-difluoro-4-(2-methyl-7-((methylthio)methoxy)-2H-indazol-4-yl)benzyl)-6,7-dihydro-5H-pyrrolo[3,4-b]pyridin-5-one-7,7-d2], on human mAChR M1 [1], the half-maximal effective concentration (EC50) came out at 722 nM and the Emax was 74%. For the same molecule, on human mAChR M1 [2], the “Agonist Activity Human M1 EC50” value is recorded as “Inactive” and the maximal response (Emax) was 6%.
For `[2H]C1([2H])c2ncccc2C(=O)N1Cc1c(F)cc(-c2ccc(OCS(C)(=O)=O)c3nn(C)cc23)cc1F` [Compound 186, 6-(2,6-difluoro-4-(2-methyl-7-((methylsulfonyl)methoxy)-2H-indazol-4-yl)benzyl)-6,7-dihydro-5H-pyrrolo[3,4-b]pyridin-5-one-7,7-d2], the EC50 was 391 nM at human mAChR M1 [1] and 7230 nM at human mAChR M1 [2]. In addition, the Emax at human mAChR M1 [1] was found to be 72%; on human mAChR M1 [2] it was 15%.
For `[2H]C1([2H])c2ncccc2C(=O)N1Cc1c(F)cc(-c2ccc(OC3CN(S(=O)(=O)C(C)C)C3)c3nn(C)cc23)cc1F` [Compound 187, 6-(2,6-difluoro-4-(7-((1-(isopropylsulfonyl)azetidin-3-yl)oxy)-2-methyl-2H-indazol-4-yl)benzyl)-6,7-dihydro-5H-pyrrolo[3,4-b]pyridin-5-one-7,7-d2], on human mAChR M1 [1], the half-maximal effective concentration (EC50) was found to be 473 nM and the maximal effect (Emax) was 67%. For the same molecule, at human mAChR M1 [2], the “Agonist Activity Human M1 EC50” value is “Inactive” and the Emax is 1%.
`[2H]C1([2H])c2ncccc2C(=O)N1Cc1c(F)cc(-c2ccnc3nn(C([2H])([2H])[2H])cc23)cc1F` [Compound 188, 6-(2,6-difluoro-4-(2-(methyl-d3)-2H-pyrazolo[3,4-b]pyridin-4-yl)benzyl)-6,7-dihydro-5H-pyrrolo[3,4-b]pyridin-5-one-7,7-d2]: on human mAChR M1 [1], the concentration giving a half-maximal response (EC50) came to 2710 nM and the Emax turned out to be 71%. Also, on human mAChR M1 [2], the “Agonist Activity Human M1 EC50” value was “Inactive” and the Emax stood at 9%.
The like results for `[2H]C1([2H])c2ncccc2C(=O)N1Cc1c(F)cc(-c2ccc(OC3CN(C4CCCCC4)C3)c3nn(C)cc23)cc1F` [Compound 189, 6-(4-(7-((1-cyclohexylazetidin-3-yl)oxy)-2-methyl-2H-indazol-4-yl)-2,6-difluorobenzyl)-6,7-dihydro-5H-pyrrolo[3,4-b]pyridin-5-one-7,7-d2] were, in that order, 629 nM, 72%, “Inactive” and 3%.
Consider `[2H]C1([2H])c2ncccc2C(=O)N1Cc1c(F)cc(-c2cccc3nn(C([2H])([2H])[2H])cc23)cc1C1CC1` [Compound 190, 6-(2-Cyclopropyl-6-fluoro-4-(2-(methyl-d3)-2H-indazol-4-yl)benzyl)-6,7-dihydro-5H-pyrrolo[3,4-b]pyridin-5-one-7,7-d2], for which, on human mAChR M1 [1], the EC50 was found to be 119 nM and the Emax amounted to 84%. Besides, at human mAChR M1 [2], the EC50 turned out to be 7520 nM and the Emax amounted to 37%.
As to `[2H]C1([2H])c2ncccc2C(=O)N1Cc1c(F)cc(-c2cccc3nn(C([2H])([2H])[2H])c(F)c23)cc1C1CC1` [Compound 191, 6-(2-Cyclopropyl-6-fluoro-4-(3-fluoro-2-(methyl-d3)-2H-indazol-4-yl)benzyl)-6,7-dihydro-5H-pyrrolo[3,4-b]pyridin-5-one-7,7-d2], at human mAChR M1 [1], the EC50 is 1050 nM and the maximum response (Emax) stood at 58%. On human mAChR M1 [2], the “Agonist Activity Human M1 EC50” value is given as “Inactive” and the maximum response (Emax) was found to be 2%.
Regarding `[2H]C1([2H])c2ncccc2C(=O)N1Cc1c(F)cc(-c2cccc3nn(C)cc23)cc1C1CC1` [Compound 192, 6-(2-cyclopropyl-6-fluoro-4-(2-methyl-2H-indazol-4-yl)benzyl)-6,7-dihydro-5H-pyrrolo[3,4-b]pyridin-5-one-7,7-d2], the EC50 at human mAChR M1 [1] amounted to 137 nM; on human mAChR M1 [2], 5960 nM. Further, the values for the maximal response (Emax) at human mAChR M1 [1] and at human mAChR M1 [2] were 84% and 44%, respectively.
The matching figures for `[2H]C1([2H])c2ncccc2C(=O)N1Cc1c(F)cc(-c2ccc3nn(C)cc3c2)cc1C1CC1` [Compound 193, 6-(2-cyclopropyl-6-fluoro-4-(2-methyl-2H-indazol-5-yl)benzyl)-6,7-dihydro-5H-pyrrolo[3,4-b]pyridin-5-one-7,7-d2]: 266 nM, 9830 nM, 88% and 11%.
For `[2H]C1([2H])c2ncccc2C(=O)N1Cc1c(C)cc(-c2ccc3nn(C)cc3c2)cc1F` [Compound 194, 6-(2-fluoro-6-methyl-4-(2-methyl-2H-indazol-5-yl)benzyl)-6,7-dihydro-5H-pyrrolo[3,4-b]pyridin-5-one-7,7-d2], on human mAChR M1 [1], the concentration giving a half-maximal response (EC50) is 437 nM and the maximal response (Emax) was 83%. At human mAChR M1 [2], the concentration for a half-maximal effect (EC50) amounted to 3550 nM and the Emax is 18%.
Turning to `[2H]C1([2H])c2ncccc2C(=O)N1Cc1c(C)cc(-c2ccc(OC)c3nn(C)cc23)cc1F` [Compound 195, 6-(2-fluoro-4-(7-methoxy-2-methyl-2H-indazol-4-yl)-6-methylbenzyl)-6,7-dihydro-5H-pyrrolo[3,4-b]pyridin-5-one-7,7-d2], at human mAChR M1 [1], the concentration giving a half-maximal response (EC50) was determined as 198 nM and the maximum response (Emax) amounted to 79%. For the same molecule, at human mAChR M1 [2], the half-maximal effective concentration (EC50) came to 3730 nM and the Emax was found to be 43%.
The matching figures for `[2H]C1([2H])c2ncccc2C(=O)N1Cc1c(C)cc(-c2ccc(OC3CC3)c3nn(C)cc23)cc1F` [Compound 196, 6-(4-(7-cyclopropoxy-2-methyl-2H-indazol-4-yl)-2-fluoro-6-methylbenzyl)-6,7-dihydro-5H-pyrrolo[3,4-b]pyridin-5-one-7,7-d2]: 437 nM, 83%, 8680 nM and 43%.
The like results for `[2H]C1([2H])c2ncccc2C(=O)N1Cc1c(C)cc(-c2ccc(C)c3nn(C)cc23)cc1F` [Compound 197, 6-(4-(2,7-dimethyl-2H-indazol-4-yl)-2-fluoro-6-methylbenzyl)-6,7-dihydro-5H-pyrrolo[3,4-b]pyridin-5-one-7,7-d2] were, in that order, 433 nM, 85%, at least 10000 nM and 37%.
For the molecule `[2H]C1([2H])c2ncccc2C(=O)N1Cc1c(C)cc(-c2ccc(F)c3nn(C)cc23)cc1F` [Compound 198, 6-(2-fluoro-4-(7-fluoro-2-methyl-2H-indazol-4-yl)-6-methylbenzyl)-6,7-dihydro-5H-pyrrolo[3,4-b]pyridin-5-one-7,7-d2], on human mAChR M1 [1], the EC50 is 347 nM and the maximal effect (Emax) is 79%. Further, on human mAChR M1 [2], the EC50 came to 5600 nM and the maximum response (Emax) worked out at 30%.
Take `[2H]C1([2H])c2ncccc2C(=O)N1Cc1c(C)cc(-c2ccc(Cl)c3nn(C)cc23)cc1F` [Compound 199, 6-(4-(7-chloro-2-methyl-2H-indazol-4-yl)-2-fluoro-6-methylbenzyl)-6,7-dihydro-5H-pyrrolo[3,4-b]pyridin-5-one-7,7-d2]: on human mAChR M1 [1], the EC50 came to 475 nM and the Emax was 81%. Also, at human mAChR M1 [2], the “Agonist Activity Human M1 EC50” value is on record as “Inactive” and the Emax stood at 4%.
